From patent publication US20240139216A1, “STABLE ORAL CANNABIDIOL COMPOSITIONS” (CARDIOL THERAPEUTICS INC., priority 2020, published 2024)

Legend:
CB2 receptor = CB2 receptor (Homo sapiens, UniProt P34972); settings: Proc Natl Acad Sci USA 2008; 105(26):9099-104; cited from earlier work
Solubility of CBD in BCP = format: physicochemical; settings: in 1 mL of BCP
Description: For example, at least 300 mg of CBD can be dissolved in 1 mL of BCP. The enhanced stability of the CBD provides a composition with an acceptable shelf life and which can provide consistency in dosing and enhanced safety.

Chain of CB2 receptor (P34972 whole entry): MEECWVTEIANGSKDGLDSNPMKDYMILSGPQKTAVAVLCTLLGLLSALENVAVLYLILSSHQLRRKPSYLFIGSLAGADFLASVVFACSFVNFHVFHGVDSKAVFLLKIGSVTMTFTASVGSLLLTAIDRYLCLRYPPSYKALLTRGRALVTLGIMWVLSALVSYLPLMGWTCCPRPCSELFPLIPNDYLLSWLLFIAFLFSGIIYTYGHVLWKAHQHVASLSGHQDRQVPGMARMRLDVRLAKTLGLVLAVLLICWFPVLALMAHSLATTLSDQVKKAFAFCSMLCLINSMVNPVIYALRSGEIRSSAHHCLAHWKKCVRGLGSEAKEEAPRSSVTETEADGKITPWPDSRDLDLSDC

SMILES | binding to the CB2 receptor (CB2 receptor) | functional activity at the CB2 receptor (CB2 receptor) | amount of CBD that can be dissolved in BCP (Solubility of CBD in BCP)
C=C1CC/C=C(\C)CC[C@@H]2[C@@H]1CC2(C)C (relative stereo) [β-caryophyllene, trans-(1R,9S)-8-Methylene-4,11,11-trimethylbicyclo[7.2.0]undec-4-ene] | selectively binds to the CB2 receptor | functional CB2 agonist | –
C=C(C)[C@@H]1CCC(C)=C[C@H]1c1c(O)cc(CCCCC)cc1O [CBD, cannabidiol] | – | – | at least 300 mg
